# Positions of bridges follow the written chain, without caps; N, C: chain ends. Non-standard residues stand in square brackets, D forms with d. Residues, ends and D or L forms follow the SMILES beside them. Chains are numbered I, II in the order given. *: point of attachment. Benzoyl(2,3-Cl2) = O=C(c1cccc(Cl)c1Cl)*; 2Nal = N[C@@H](Cc1ccc2ccccc2c1)C(=O)O; Tle = CC(C)(C)[C@H](N)C(=O)O; βAla = NCCC(=O)O
# Columns and labels:
# Calcineurin (GST-CN) = target: T1, Calcineurin (GST-CN) (Homo sapiens, UniProt Q08209); assay: Direct binding of FITC-labeled peptides to CN by fluorescence anisotropy/polarization
# T1 construct: made in house; host or cells: E. coli BL21
# Procedure: To facilitate concentration determination and binding analysis by fluorescence anisotropy (FA), a dipeptide Tyr-Lys was added to the C-terminus of ZIZIT (SEQ ID NO:1) and the lysine side chain was labeled with fluorescein isothiocyanate (FITC). The resulting peptide,
# Fluorescence Polarization. Fluorescence polarization (FP) experiments were carried out to measure binding affinity in both direct and competitive binding experiments using GST-CN and peptides prepared as mentioned previously. For direct binding, 50 nM FITC-labeled peptide was prepared in PBS, pH 7.4 containing 5 mM DTT and 0.01% Triton-X100 and then added to GST-CN diluted in PBS containing 0.01% Triton-X100. Solutions were incubated for 1 h at RT with gentle mixing and then pipetted into black 384-well microplates. Fluorescence polarization was measured on a TECAN Infinite M1000 plate reader and titration curves were fitted using both KaelidaGraph v 3.6 and GraphPad PRISM to the equation:
# [formula] • where FP is the measured fluorescence polarization, Amin is the minimum FP value, Amax is the maximum FP signal, Qb is the quantum yield of the bound fluorophore, Qf is the quantum yield of the free fluorophore, L is the ligand concentration, KD is the dissociation constant and x is the protein concentration.
# H441 (lung cancer) cells = assay: MTT assay, H441; type: cell-based; settings: 72 h
# Procedure: MTT Proliferation Assay. HeLa, Jurkat-Lucia, or H441 cells were seeded into a 96-well microplate (5000 cells per well) in full growth media and incubated at 37° C. overnight. A serial dilution of each compound was prepared in DPBS and then added to each well. The treated cells were incubated at 37° C. with 5% CO2 for 72 h. Following compound treatment, 10 μL of MTT stock solution was added to each well. After an additional 4 h at 37° C., 100 μL of SDS-HCl solubilizing solution was added to each well and the plate was returned to the incubator overnight at 37° C. A Tecan Infinite M1000 Pro microplate reader was used the following morning to measure the absorbance of the formazan product at 565 nm.
# [1] = tested on: LPS-induced TNFα production in lung macrophages; assay: LPS-induced TNFα secretion by lung macrophages (ELISA); type: cell-based, mouse
# Description: Cell supernatants were collected and analyzed for TNFα levels by R&D systems TNFα ELISA kit.
# [2] = tested on: LPS-induced acute lung injury (ALI) in mice; assay: LPS sepsis-induced acute lung injury, intranasal CNI93; type: in vivo, mouse; settings: i.n. 10 mg/kg
# Procedure: As expected, LPS challenge of CPP9-VAVAA (SEQ ID NO: 224) treated mice increased the total protein in BALF by ˜2-fold and TNFα and IL-6 levels in BALF (FIGS. 11A, 11B, and 11D, respectively).
# Mouse models of LPS sepsis. Mouse LPS sepsis-induced acute lung injury models were established by intraperitoneal injection of LPS at 10 mg/kg body weight. Acute lung injury was assessed by measuring secretion of TNFα, IL6 in to broncho alveolar lavage fluid (BALF), plasma levels of IL6 and TNFα, and neutrophilic infiltration. Pulmonary edema was measured by increased protein levels in BALF. Neutrophilic infiltration in to bronchoalveolar lavage fluid is determined by Hema 3.0 staining and number of neutrophils in BALF is quantitated.
# Neutrophilic inflammation. BALF fluid from different treatment groups of mice was used to prepare Cytospin slides, stained using Hema 3 and number of neutrophils and macrophages per field view of microscopic view were counted and differences among groups calculated.
# T1 sequence (Q08209 2-347 limits assumed): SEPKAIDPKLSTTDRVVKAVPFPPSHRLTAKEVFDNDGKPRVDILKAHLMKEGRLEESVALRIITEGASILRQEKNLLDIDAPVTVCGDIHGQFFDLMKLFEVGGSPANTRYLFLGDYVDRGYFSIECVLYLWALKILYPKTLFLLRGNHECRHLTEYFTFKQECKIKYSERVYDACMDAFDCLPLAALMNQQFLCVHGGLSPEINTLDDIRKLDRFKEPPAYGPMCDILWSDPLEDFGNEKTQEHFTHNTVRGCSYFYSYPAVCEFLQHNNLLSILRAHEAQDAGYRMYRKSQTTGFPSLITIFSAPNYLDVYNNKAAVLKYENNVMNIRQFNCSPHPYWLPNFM
compound,measurement,setting,value
"CC[C@H](C)[C@H](NC(=O)[C@@H](NC(=O)c1cccc(Cl)c1Cl)C(C)(C)C)C(=O)N[C@H](C(=O)N[C@H](C(=O)N[C@H](C(=O)N[C@@H](CCC(N)=O)C(=O)N[C@@H](Cc1c[nH]cn1)C(=O)N[C@H](CC(C)C)C(=O)N[C@@H](CO)C(=O)NCCC(=O)N[C@@H](CCCCNC(=O)CC[C@@H]1NC(=O)[C@@H](CCCNC(=N)N)NC(=O)[C@H](CCCNC(=N)N)NC(=O)[C@@H](CCCNC(=N)N)NC(=O)[C@H](CCCNC(=N)N)NC(=O)[C@H](Cc2ccc3ccccc3c2)NC(=O)[C@@H](Cc2ccccc2)NC1=O)C(N)=O)[C@@H](C)O)[C@@H](C)CC)C(C)(C)C [CNI93] (I: {Benzoyl(2,3-Cl2)}-[Tle]I[Tle]ITQH[dL]S[βAla]K-NH2 / II: cyclo([2Nal]R[dR]R[dR]E[dF]); amide I:11-II:6 (inferred); ring closure inferred)",lower CN-binding affinity relative to peptide 14,Calcineurin (GST-CN),8 fold
same,cytotoxicity,"H441 (lung cancer) cells; H441, 25 μM",No significant cytotoxicity
same,cell viability,"H441 (lung cancer) cells; H441, 50 μM",Reduction in cell viability
same,decrease of LPS-induced TNFα production,"[1]; dose-dependent, 100 nM-10 μM, LPS 100 ng/mL, 16 h",24-59%
same,potency as immunosuppressant relative to CsA,[1]; ex vivo assay,~10 fold
same,neutrophilic infiltration into the lungs,[2]; 1 h before LPS i.p. 10 mg/kg,prevented
same,protection from LPS-induced production of cytokines and protein leakage into BALF,[2]; 1 h before LPS i.p. 10 mg/kg,almost completely protected
same,decrease of plasma level of IL6,[2]; LPS sepsis mice,~4 fold
same,decrease of plasma level of TNFα,[2]; LPS sepsis mice,~4 fold

# Reference: patent US12329799B2, “Peptidyl inhibitors of calcineurin-NFAT interaction” (Ohio State Innovation Foundation, priority 2018, dated 2025)
